Experimental data published in US20250215004A1, “AZOLO COMPOUNDS FOR TREATMENT OF FIBROTIC DISEASES” (GEORG-AUGUST-UNIVERSITÄT GÖTTINGEN STIFTUNG ÖFFENTLICHEN …, priority 2022, published 2025).
Values after ≈ are worked out from the molar mass of the structure shown.

Assays:
Type in all cases: cell-based
TK173 cells [1] = assay: Collagen I mRNA PCR assay (qPCR, normalized to GAPDH) in TGFβ1-treated TK173 fibroblasts; conditions: Homo sapiens, Fibroblast, 10 ng/ml TGFβ1 for 5 days, then compound 48 hours
Procedure: (§1) Compound reconstitution. Prior to treatment, each compound was used from a stock solution of a concentration of 10 mg/ml in DMSO. Final concentration of DMSO in cell cultures was kept below 0.1%.
(§2) Cell culture and treatment. The human renal fibroblast cell line TK173 was derived from a normal human kidney (laboratory stock; (G. A. Müller et al., Exp. Nephrol. 1995, 3, 127). Cell line stabilization for research purposes was approved by the Ethics Committee of the Georg-August-University. TK173 cells were cultured in Dulbecco's modified Eagle's medium (DMEM, Gibco, USA) supplemented with 10% fetal bovine serum (FBS, Gibco, Germany) and 1% penicillin-streptomycin (PS, Gibco, USA) at 37° C. in a humidified atmosphere with 5% CO2. Cell line was routinely tested for mycoplasma contamination. To investigate the effect of compounds after profibrotic agent treatment, 3×10^4 TK173 cells were seeded in one well of a 6-well culture plate in normal medium. After 24 hours, the culture medium was removed, and the cells were incubated for a further 24 hours in FBS free culture medium (starvation medium). Then, 10 ng/ml TGFβ1 (R&D Systems, USA) was added to the starvation medium, and the culture medium was changed with fresh TGFβ1 in every alternate day. After 5 days of TGFβ1 treatment, cell culture medium was replaced by starvation medium with compounds at different concentration for following 48 hours of incubation.
RNA isolation. Total RNA was extracted by the TRIzol reagent (Life technologies, USA) and purified by PureLink RNA Mini Kit (Ambion, USA) according to instructions available from the manufacturer with minor modifications. The samples were stored at −80° C. prior to use. RNA concentrations were measured by NanoDrop Spectrophotometer (ThermoFisher Scientific, USA), and were equilibrated to 100 ng for complementary DNA (cDNA) synthesis.
Quantitative real-time PCR analysis (qPCR). For SYBR Green-based qPCR analysis, cDNA preparation was performed by using DNAse I (Sigma-Aldrich, USA) digestion to remove residual genomic DNA and SuperScript II Reverse Transcriptase kit (Invitrogen, USA) to synthesize cDNA following the manufacturer's detailed instructions. All qPCR reactions were performed using the StepOne Plus Real-Time System (Applied Biosystems, USA) and amplifications were done using the SYBR Green PCR Master Mix (Applied Biosystems, USA). The thermal cycling conditions were initiated to 95° C. for 20 seconds, 40 amplification cycles at 95° C. for 3 seconds and 60° C. for 30 seconds, with one cycle of dissociation at 95° C. for 15 seconds, 60° C. for 60 seconds, and 95° C. for 15 seconds. Three replicates per sample were run in duplicate. The experimental cycle threshold (Ct) values were normalized to those obtained for GAPDH, and the relative gene expression level was determined using the 2_ddCT methods.

TK173 cells [2] = assay: Collagen I Western blot in TGFβ1-treated TK173 fibroblasts; conditions: Homo sapiens, Fibroblast, 10 ng/ml TGFβ1 for 5 days, then compound 48 hours, Collagen I immunoblot
Procedure: as §1, §2
Protein Extraction. Total proteins were extracted from the cultured cells by NP40 Cell Lysis Buffer (Invitrogen, USA) containing phosphatase (Sigma-Aldrich, USA) and protease inhibitor (Roche, Switzerland) followed by sonication and centrifugation at 12,000×g for 20 minutes at 4° C. to clear the lysates. The supernatant was collected and measured using Pierce BCA Protein Assay Kit (ThermoFisher Scientific) by PHOmo Microplate Reader (Autobio, China). The samples were stored at −80° C. prior to use.
Immunoblotting. Western blot analysis, 10 μg of extracted proteins were diluted in NuPAGE LDS Samples Buffer (Novex Life technologies, USA) containing 5% 2-Mercaptoethanol (Sigma-Aldrich, Germany), and following denatured for 5 minutes at 95° C. The proteins were resolved by 4-12% NuPAGE SDS-PAGE (Novex Life technologies, USA). Blots were often stripped with Thermo Scientific Restore PLUS Western Blot Stripping Buffer (Thermo Fisher Scientific, Germany) for reprobing. The following antibodies were used for immunoblotting: Collagen I (1:1000; ab233080, Abcam, USA), alpha smooth muscle Actin (1:1000; ab124964, Abcam, USA), GAPDH (1:8000; sc-32233, Santa Cruz, USA). Proteins were detected by LumiGLO chemiluminescent system (Cell Signaling Technology, USA) with appropriate secondary antibodies: anti-mouse HRP (1:2500; Dako, Denmark) and anti-rabbit HRP (1:2500; 7074, Cell Signaling Technology, USA) using ChemiDoc MP Imaging System (Bio-Rad, USA).

TK173 cells [3] = assay: ELISA to detect secreted type I collagen (Pro-Collagen I alpha 1) in conditioned media of TGFβ1-treated TK173 fibroblasts; conditions: Homo sapiens, Fibroblast, 10 ng/ml TGFβ1 for 5 days, then compound 48 hours, Pro-Collagen I alpha 1 ELISA of conditioned media, read-out: IC50, concentration where the TGFβ-stimulated collagen secretion is attenuated by 50%
Procedure: as §1, §2
Conditioned media containing the secretome of TK173 fibroblast were harvested after 48 hours of compound treatments. Secretion of pro-Collagen 1 was assessed with Human Pro-Collagen I alpha 1 DuoSet ELISA (R&D Systems, USA). To prepare the ELISA plate, Human Pro-Collagen I α1 Capture Antibody was diluted in ELISA Plate-coating Buffer at 4 μg/ml working concentration. 100 μl of diluted Capture Antibody was added to the 96-well microplates and incubated overnight at room temperature. After three times washing with Wash Buffer, microplates were blocked by adding 300 μl of Reagent Diluent for 1 hour at room temperature. To proceed the ELISA, Human Pro-Collagen I α1 Standards were diluted in Reagent Diluent (range between 31.3 pg/ml-2000 pg/ml) and 100 μl of standards or conditioned mediums were add into designated wells. Microplates were incubated at room temperature for 2 hours. Human Pro-Collagen I α1 Detection Antibody was prepared in Reagent Diluent at 100 ng/ml working concentration and 100 μl of diluted Detection Antibody was applied for 2 hours at room temperature after extensive washing. Then, working solution of Streptavidin-HRP with Reagent Diluent was prepared by diluting 1:40 and added into each well. After 20 minutes at room temperature incubation, microplates were washed and applied with 100 μl of Substrate Solution for 20 minutes followed by Stop Solution after washing. Finally, signals were measured at 450 nm absorbance by PHOmo Microplate Reader (Autobio, China). The amount of pro-collagen 1 antibody fusion was quantified by extrapolating the signal into a linear range of a pro-collagen 1 standard curve. Screening compounds were typically tested in at concentrations between 5 and 200 μg/ml. The IC50 values observed by the dose response curves for each compound (n=4-6, two independent experiments) were obtained by nonlinear regression analysis using Prism 9 software (GraphPad, La Jolla, USA) and represent the concentration where the TGFβ-stimulated collagen secretion is attenuated by 50%.

| SMILES | IC50 (TK173 cells [1]) [µg/mL] | IC50 (TK173 cells [2]) [µg/mL] | IC50 (TK173 cells [3]) [µg/mL] |
| --- | --- | --- | --- |
| c1ccc2c(c1)cnn1nnnc21 [Compound 1, Tetrazolo[5,1-a]phthalazine] | < 80 | < 40 | 157 (≈ 917 µM) |
| Cc1nnc2c3ccccc3cnn12 [Compound 3, 3-Methyl-1,2,4-triazolo[3,4-a]phthalazine] | < 20 | < 5 | 96 (≈ 521 µM) |
